# Reference: publication PMC11842588, “A first-in-class selective inhibitor of ERK1/2 and ERK5 overcomes drug resistance with a single-molecule strategy” (Signal Transduction and Targeted Therapy, 2025)
# Legend:
# MDA-MB-231 xenograft = MDA-MB-231 xenograft tumor growth inhibition; format: in vivo, nude mice (BALB/c-nu); conditions: 50 mg/kg (each drug), intragastric once daily, 16 days, by tumor weight
# Description: All procedures were performed in accordance with the Laboratory Animals Welfare Act, the Guide for the Care and Use of Laboratory Animals and the Guidelines and Policies. The rodent experiment was approved by IACUC (Institutional Animal Care and Use Committee) in the Experimental Animal Ethics Committee of West China Hospital (Approval No. 2021672A). 48 female nude mice (BALB/c-nu, 5 weeks, 15–18 g, purchased from Beijing HFK Bio-Technology Co., LTD) were acclimatized for one week in an SPF-grade animal facility (ventilated, 20–25 °C, 50–60% humidity). […] When the tumor volume reached approximately 100 mm^3 (V = L × W^2/2), the mice were randomly divided into six groups (n = 8 per group): (1) Control group (normal saline); (2) 25 mg/kg SKLB-D18-treated group; (3) 50 mg/kg SKLB-D18-treated group; (4) 50 mg/kg BVD-523-treated group; (5) 50 mg/kg XMD8-92-treated group; (6) BVD-523 (50 mg/kg) and XMD8-92 (50 mg/kg) combined treatment group. Drugs were freshly prepared with 5% DMSO, 10% Solutol HS-15, and 85% normal saline on the day of administration. Intragastric administration occurred once daily at the same time for 16 consecutive days. And the body weight and tumor volume of mice were measured every three days. After the administration period, all nude mice were euthanized by cervical dislocation the next day. Tumors and vital organs (heart, liver, spleen, lung, kidney) were dissected, and tumors were weighed, then immediately fixed in 4% paraformaldehyde or stored in −80 °C.
# MDA-MB-231 cells = assay: MTT cell viability assay; format: cell-based
# Description: (§1) MDA-MB-468 and MDA-MB-436 cells were cultured in Leibovitz’s L-15 medium supplemented with 10% fetal bovine serum. […] All of the cells were cultured at 37 °C in a humidified atmosphere containing 5% CO2.
# (§2) Cancer cells were seeded in a density in 96-well plates (2 × 10^3 cells per well). After incubation for 24 h, cancer cells were treated with compounds (0–20 μM) for 72 h.
# MDA-MB-468 cells = assay: MTT cell viability assay; format: cell-based
# Description: as §1, §2
# ERK1 = ERK1 (Homo sapiens, UniProt P27361); assay: ADP-Glo kinase assay; format: biochemical; conditions: for inhibition at 0.5 µM: read-out: Enzyme inhibitory activity (500 nM, %) ERK1
# Chain of ERK1 (P27361 whole entry, the tested form may be a part): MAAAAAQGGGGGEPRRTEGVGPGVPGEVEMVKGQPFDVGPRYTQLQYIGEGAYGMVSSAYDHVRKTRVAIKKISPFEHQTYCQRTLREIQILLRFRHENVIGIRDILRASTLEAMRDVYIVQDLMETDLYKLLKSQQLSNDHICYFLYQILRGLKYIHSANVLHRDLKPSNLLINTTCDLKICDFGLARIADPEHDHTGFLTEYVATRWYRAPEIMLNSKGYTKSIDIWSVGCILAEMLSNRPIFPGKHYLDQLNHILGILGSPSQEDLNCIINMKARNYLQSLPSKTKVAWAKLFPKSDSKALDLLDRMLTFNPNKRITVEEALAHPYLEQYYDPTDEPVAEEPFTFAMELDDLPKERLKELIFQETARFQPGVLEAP
# Description: (§3) The full-length human ERK1 or ERK2 with His-tag was cloned into a pET28a vector. hERK1/2 were expressed in Escherichia coli BL21(DE3), and then were purified using sequential Ni-NTA and Superdex 200 column steps. The SEC purified sample was then concentrated to 10 mg/ml and stored at −80 °C with buffer containing 20 mM HEPES pH 7.5, 150 mM NaCl. ERK5 (residues 48–395) containing His and GST tags was cloned into the pFastBac vector, and the recombinant plasmid was extracted. The recombinant plasmid was transformed into the DH10bac strain, and monoclonal was selected for culture. The recombinant Bacmid was then extracted according to the instructions of the Baculovirus Shuttle Vector Bacmid Mini Preparation Kit (Beyotime) and validated by PCR. 1 × 10^6/well Sf9 cells were counted for transfection and then amplified to obtain P3 ERK5 recombinant baculovirus. It was added to 2 × 10^6/mL Sf9 cells and incubated at 27 °C for 72 h on a shaker to express ERK5. Cells were lysed and supernatant was collected on a Ni-NTA for purification, and a 250 mM imidazole eluate was collected. Next, digestion by TEV protease was performed overnight while dialysis was performed in approximately 1000 mL of imidazole-free buffer. The digested ERK5 protein was sequentially purified on the Ni-NTA and GST-tag Purification Resin, followed by size exclusion chromatography on a Superdex 75 column. ERK5 protein was collected and concentrated to 12 mg/ml and stored at −80 °C in buffer containing 50 mM HEPES pH 8.0, 200 mM NaCl, 10% (v/v) glycerol.
# (§4) ERK1/2/5 kinase activity assay was conducted using ADP-Glo™ Kinase Assay. 2× ATP solution and 2× kinase & Metal solution were prepared using assay buffer were prepared using assay buffer containing 50 mM Hepes pH 7.5, 10 mM MgCl2; 0.01% Brij35, 1 mM EGTA, 2 mM DTT. Transfer 40 nL compounds to 384 assay plate. Add 2 μL of 2× kinase & Metal solution were mixed and incubated in a 384-assay plate for 10 min at 25 °C. 2 μL of 2×ATP solution was added and incubated at 25 °C for 60 min. And then, each well was supplemented with 4 µL of ADP-Glo^TM reagent and incubated at 25 °C for 40 min. Subsequently, 8 µL of Kinase Detection Reagent was added and incubated at 25 °C for 40 min. Finally, the luminescence signals were recorded. The IC50 values were calculated using GraphPad Prism 9.5 software.
# ERK2 = ERK2 (Homo sapiens, UniProt P28482); assay: ADP-Glo kinase assay; format: biochemical; conditions: for inhibition at 0.5 µM: read-out: Enzyme inhibitory activity (500 nM, %) ERK2
# Chain of ERK2 (P28482 whole entry): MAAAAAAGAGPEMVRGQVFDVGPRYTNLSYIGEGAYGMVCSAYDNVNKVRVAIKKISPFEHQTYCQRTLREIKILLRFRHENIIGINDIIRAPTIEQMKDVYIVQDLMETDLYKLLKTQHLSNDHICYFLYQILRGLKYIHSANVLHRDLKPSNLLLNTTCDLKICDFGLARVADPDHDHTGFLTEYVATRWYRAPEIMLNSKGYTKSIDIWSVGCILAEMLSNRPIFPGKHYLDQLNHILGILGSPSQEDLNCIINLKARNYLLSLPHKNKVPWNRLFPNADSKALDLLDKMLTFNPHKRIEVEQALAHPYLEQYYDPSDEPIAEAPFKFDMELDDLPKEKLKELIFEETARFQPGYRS
# Description: as §3, §4
# ERK5 = ERK5 (Homo sapiens, UniProt Q13164); assay: ADP-Glo kinase assay; format: biochemical; conditions: for inhibition at 0.5 µM: read-out: Enzyme inhibitory activity (500 nM, %) ERK5
# Chain of ERK5 (Q13164 whole entry): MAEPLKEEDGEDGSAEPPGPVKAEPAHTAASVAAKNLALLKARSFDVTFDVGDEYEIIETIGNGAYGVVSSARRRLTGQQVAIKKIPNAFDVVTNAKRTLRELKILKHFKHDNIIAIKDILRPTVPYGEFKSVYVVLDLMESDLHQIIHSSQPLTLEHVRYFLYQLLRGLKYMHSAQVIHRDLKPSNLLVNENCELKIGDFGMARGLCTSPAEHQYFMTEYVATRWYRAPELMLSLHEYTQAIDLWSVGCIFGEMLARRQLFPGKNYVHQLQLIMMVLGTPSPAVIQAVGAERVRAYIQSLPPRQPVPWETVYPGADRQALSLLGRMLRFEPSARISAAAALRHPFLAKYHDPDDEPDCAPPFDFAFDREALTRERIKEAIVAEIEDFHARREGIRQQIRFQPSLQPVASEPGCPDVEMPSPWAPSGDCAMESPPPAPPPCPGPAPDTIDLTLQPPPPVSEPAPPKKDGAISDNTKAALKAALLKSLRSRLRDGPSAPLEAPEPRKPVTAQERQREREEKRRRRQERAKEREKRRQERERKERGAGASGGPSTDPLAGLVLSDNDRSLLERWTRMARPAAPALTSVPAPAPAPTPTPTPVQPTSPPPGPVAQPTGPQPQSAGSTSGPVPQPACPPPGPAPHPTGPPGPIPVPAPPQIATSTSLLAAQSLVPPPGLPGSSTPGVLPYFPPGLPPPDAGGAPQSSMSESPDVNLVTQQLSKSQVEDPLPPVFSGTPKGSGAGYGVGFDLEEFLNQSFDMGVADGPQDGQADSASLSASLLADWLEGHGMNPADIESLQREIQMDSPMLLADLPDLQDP
# Description: as §3, §4
SMILES,"IC50 (MDA-MB-231 cells; Homo sapiens, MDA-MB-231, read-out: IC50 MDA-MB-231, MTT, 72 h)","IC50 (MDA-MB-468 cells; Homo sapiens, MDA-MB-468, MTT, 72 h)",inhibition at 0.5 µM (ERK1),inhibition at 0.5 µM (ERK2),inhibition at 0.5 µM (ERK5),"Enzyme inhibitory activity (500 nM, %) ERK1 (ERK1)","Enzyme inhibitory activity (500 nM, %) ERK2 (ERK2)","Enzyme inhibitory activity (500 nM, %) ERK5 (ERK5)",tumor inhibition rate (MDA-MB-231 xenograft),"Anti-proliferative activity (10 μM, %) MDA-MB-231 (MDA-MB-231 cells)","Anti-proliferative activity (10 μM, %) MDA-MB-468 (MDA-MB-468 cells)"
CCOc1cc(N2CCC(O)CC2)ccc1Nc1ncc2c(n1)N(C)c1ccccc1C(=O)N2C [XMD8-92],,,,,,,,,7.75%,,
"CN1CCN(NC(=O)c2cc(-c3nc(Nc4ccnn4C)ncc3Cl)cs2)CC1 [6a, 4-(5-chloro-2-((1-methyl-1H-pyrazol-5-yl)amino)pyrimidin-4-yl)-N-(4-methylpiperazin-1-yl)thiophene-2-carboxamide]",,,95.72 ± 0.65%,97.4 ± 3.45%,63.8 ± 0.32%,,,,,15.06 ± 0.35%,10.78 ± 1.32%
Cn1nccc1Nc1ncc(Cl)c(-c2csc(C(=O)NN3CCOCC3)c2)n1 [6e],,,,,,97.82 ± 0.43%,99.00 ± 0.56%,70.61 ± 0.98%,,11.49 ± 1.48%,0.70 ± 0.45%
"COc1ccc(NC(=O)c2cc(-c3nc(Nc4ccnn4C)ncc3Cl)cs2)cc1OC [6ag, 4-(5-chloro-2-((1-methyl-1H-pyrazol-5-yl)amino)pyri-midin-4-yl)-N-(3,4-dimethoxyphenyl)thiophene-2-carboxamide]",,,,,,92.13 ± 1.04%,94.53 ± 1.21%,65.13 ± 0.90%,,33.67 ± 0.08%,25.61 ± 0.45%
CN(C)Cc1cccc(Nc2ncc(Cl)c(-c3csc(C(=O)NN4CCN(C)CC4)c3)n2)c1 [18n],,,,,,90.27 ± 1.78%,91.03 ± 1.23%,79.74 ± 0.07%,,54.82 ± 1.21%,86.37 ± 0.43%
COc1ccc(NC(=O)c2cc(-c3nc(Nc4cccc(N(C)C)c4)ncc3Cl)cs2)cc1 [9h],,,,,,77.02 ± 3.21%,78.90 ± 2.31%,65.54 ± 0.88%,,11.21 ± 0.47%,20.15 ± 0.77%

# The next lines start with results.
"IC50 (MDA-MB-231 cells; Homo sapiens, MDA-MB-231, read-out: IC50 MDA-MB-231, MTT, 72 h)","IC50 (MDA-MB-468 cells; Homo sapiens, MDA-MB-468, MTT, 72 h)",inhibition at 0.5 µM (ERK1),inhibition at 0.5 µM (ERK2),inhibition at 0.5 µM (ERK5),"Enzyme inhibitory activity (500 nM, %) ERK1 (ERK1)","Enzyme inhibitory activity (500 nM, %) ERK2 (ERK2)","Enzyme inhibitory activity (500 nM, %) ERK5 (ERK5)",SMILES,tumor inhibition rate (MDA-MB-231 xenograft),"Anti-proliferative activity (10 μM, %) MDA-MB-231 (MDA-MB-231 cells)","Anti-proliferative activity (10 μM, %) MDA-MB-468 (MDA-MB-468 cells)"
6.47 ± 0.19 µM,5.26 ± 0.66 µM,,,,,,,"CC(C)Nc1cc(-c2c[nH]c(C(=O)N[C@H](CO)c3cccc(Cl)c3)c2)c(Cl)cn1 [BVD-523, reference compound]",36.01%,,
,,7.98 ± 0.6%,5.97 ± 1.02%,81.8 ± 2.1%,,,,"Cc1cc(NC(=O)c2cc(-c3nc(Nc4cccc(CN(C)C)c4)ncc3Cl)cs2)ccn1 [18j, 4-(5-chloro-2-((3-((dimethylamino)methyl)phenyl)amino)pyrimidin-4-yl)-N-(2-methylpyridin-4-yl)thiophene-2-carboxamide]",,39.25 ± 0.21%,59.17 ± 2.12%
,,,,,80.23 ± 0.68%,82.11 ±0.61%,65.90 ± 3.12%,Cc1cccc(NC(=O)c2cc(-c3nc(Nc4ccnn4C)ncc3Cl)cs2)c1 [6q],,29.43 ± 3.25%,33.20± 0.44%
,,,,,88.34 ± 1.78%,89.45 ± 1.55%,67.34 ± 3.20%,CCc1cccc(NC(=O)c2cc(-c3nc(Nc4ccnn4C)ncc3Cl)cs2)c1 [6r],,15.53 ± 0.90%,30.21 ± 1.11%
